How the values were obtained:
[1] = system: corn (ZEAMD); test: Test 2 field trial, preemergence; type: in vivo, Zea mays ssp. indentata
Source text: (§1) Corn seeds (hybrid ‘Pioneer 31G96’) were planted in mid spring season, 3.8 cm deep in a clay loam soil having 2% organic matter and a pH of 6.6. Plots were 6.1 m long by 3.0 m wide with rows spaced 76 cm apart. Seeds were spaced 15 cm apart within the rows. The field was managed using conventional tillage practices. […] A few of the weed species could not be evaluated at every timing. […] Results are the means of the three replicates.

[2] = system: velvetleaf (ABUTH); test: Test 2 field trial, preemergence; type: in vivo, Abutilon theophrasti; set-up: scale not given here
Source text: as §1

[3] = system: corn (ZEAMD); test: Test 9 field trial, emerged weeds before corn planting; type: in vivo, Zea mays ssp. indentata; settings: 57 DAA; g a.i./ha: Cpd 2 100, Glyphosate 1540, Paraquat 1150
Procedure: Corn seeds (hybrid ‘Pioneer 34M91 RR’) were planted in mid spring season, about 3.8 cm deep in a silty clay loam soil having a pH of 6.7. Plots were 9.1 m long by 3.0 m. The field was managed using no-till practices. […] Compound 2 and paraquat treatments, alone and in combination, also included a surfactant. Glyphosate, alone and with Compound 2, included ammonium sulfate in the treatment mixture. […] The effects on the weeds in the treated plots and untreated control plots were recorded 7, 14, 23, 30 and 57 days after application. Most of the weed species could not be evaluated at every timing. Corn response was only evaluated 57 days after application. […] Results are the means of the three replicates.

[4] = system: common purslane (POROL); test: Test 12 field trial, preemergence; type: in vivo, Portulaca oleracea; settings: Cpd 2 or Cpd 1 62 g a.i./ha, Diuron 2000 g a.i./ha
Source text: In early-mid spring season, corn seeds (hybrid ‘Pioneer 3041’) were planted 5 cm deep and sugarcane nodes (variety RB-72.454) were planted 10 cm deep in separate plots in a clay soil having 2.6% organic matter and a pH of 5.6. Plots were 24 m long by 1.5 m wide with rows spaced 80 cm (corn) or 140 cm (sugarcane) apart. Corn seeds were spaced 15 cm apart and sugarcane nodes were spaced 10 cm apart within the rows. At the same time, weed seeds were broadcast over the surface of separate plots without a crop, one weed species per plot. The weed plots were rotary tilled to incorporate the weed seeds to a variety of depths. The field was managed using conventional tillage practices.

[5] = system: ladysthumb smartweed (POLPE); test: Test 14 field trial, preemergence, growth as percent of control; type: in vivo, Polygonum persicaria
Source text: Corn seeds (hybrid ‘Pioneer 31G96 RR’) were planted in mid spring season, 3.8 cm deep in a clay loam soil having 2% organic matter and a pH of 6.6. Plots were 6.1 m long by 3.0 m wide with rows spaced 76 cm apart. Seeds were spaced 15 cm apart within the rows. The field was managed using conventional tillage practices. […] Yellow nutsedge was only evaluated 19 and 28 days after application, and ivyleaf morningglory could only be evaluated 28 days after application. […] Results are the means of the three replicates. This growth inhibition data was converted to results in the form of “plant growth as a percent of control plant growth” using the calculation “100 minus growth inhibition”. […] For “growth as a percent of control” data, Colby's Equation calculates the expected additive effect of herbicidal mixtures having two active ingredients as follows:
Ga+b=GaGb/100 • wherein Ga+b is the growth as a percent of control of plants treated with the mixture expected from additive contribution of the individual components, • Ga is the observed growth as a percent of control of plants treated with the first active ingredient at the same use rate as in the mixture, and • Gb is the observed growth as a percent of control of plants treated with the second active ingredient at the same use rate as in the mixture. For mixtures having three active ingredients, Colby's Equation to calculate the expected additive effect of herbicidal mixtures is as follows:
Ga+b+c=GaGbGc/10,000 • wherein Ga and Gb are as defined above and • Ga+b+c is the growth as a percent of control of plants treated with the mixture expected from additive contribution of the individual components, and • Gc is the observed growth as a percent of control of plants treated with the third active ingredient at the same use rate as in the mixture. When these two forms of Colby's Equation are used, if the observed effects on weeds are less than the expected values, the mixture is synergistic.

[6] = system: wild mustard (SINAR); test: Test 21 growth chamber, postemergence; type: in vivo, Sinapis arvensis; settings: 19 DAA
Procedure: (§2) A test was conducted to evaluate the effects on winter barley (HORVW, Hordeum vulgare L.), winter wheat (TRZAW, Triticum aestivum L.), and several weed species, of mixtures of Compound 2 with the commercial herbicide (2,4-dichlorophenoxy)acetic acid (2,4-D), an auxin mimic. […] Plants were treated postemergence at the 2-4 leaf growth stage, and each treatment was replicated one time. […] Plants were watered as needed. […] Results are from single replicates.

[7] = system: galium (GALAP); test: Test 23 growth chamber, postemergence; type: in vivo, Galium aparine; settings: 21 DAA
Procedure: as §2, with “species” for “species,”, “herbicides” for “herbicide”, “(2,4-D) and (4-chloro-2-methylphenoxy)acetic acid (MCPA),” for “(2,4-D), an”, “mimics.” for “mimic.”, “three times.” for “one time.”, “means of the three” for “from single”

[8] = system: field poppy (PAPRH); test: Test 23 growth chamber, postemergence; type: in vivo, Papaver rhoeas; settings: 21 DAA
Procedure: as §2, with “species” for “species,”, “herbicides” for “herbicide”, “(2,4-D) and (4-chloro-2-methylphenoxy)acetic acid (MCPA),” for “(2,4-D), an”, “mimics.” for “mimic.”, “three times.” for “one time.”, “means of the three” for “from single”

[9] = system: wild buckwheat (POLCO); test: Test 23 growth chamber, postemergence; type: in vivo, Polygonum convolvulus; settings: 21 DAA
Procedure: as §2, with “species” for “species,”, “herbicides” for “herbicide”, “(2,4-D) and (4-chloro-2-methylphenoxy)acetic acid (MCPA),” for “(2,4-D), an”, “mimics.” for “mimic.”, “three times.” for “one time.”, “means of the three” for “from single”

[10] = 18 DAA, g a.i./ha: Cpd 2 25, Atrazine 250
[11] = 18 DAA, g a.i./ha: Cpd 2 50, Atrazine 500
[12] = 18 DAA, g a.i./ha: Cpd 2 75, Atrazine 750
[13] = 18 DAA, g a.i./ha: Cpd 2 100, Atrazine 1000
[14] = 18 DAA, g a.i./ha: Cpd 2 150, Atrazine 1500
[15] = 28 DAA, g a.i./ha: Cpd 2 25, Atrazine 250
[16] = 28 DAA, g a.i./ha: Cpd 2 50, Atrazine 500
[17] = 28 DAA, g a.i./ha: Cpd 2 75, Atrazine 750
[18] = 28 DAA, g a.i./ha: Cpd 2 100, Atrazine 1000
[19] = 28 DAA, g a.i./ha: Cpd 2 150, Atrazine 1500
[20] = 55 DAA, g a.i./ha: Cpd 2 25, Atrazine 250
[21] = 55 DAA, g a.i./ha: Cpd 2 50, Atrazine 500
[22] = 55 DAA, g a.i./ha: Cpd 2 75, Atrazine 750
[23] = 55 DAA, g a.i./ha: Cpd 2 100, Atrazine 1000
[24] = 55 DAA, g a.i./ha: Cpd 2 150, Atrazine 1500
[25] = 2,4-D or MCPA alone 250 g a.i./ha

Row | Compound | ABUTH Obs [2, 10] | ABUTH Obs [2, 11] | ABUTH Obs [2, 12] | ABUTH Obs [2, 13] | ABUTH Obs [2, 14] | ABUTH Obs [2, 15] | ABUTH Obs [2, 16] | ABUTH Obs [2, 17] | ABUTH Obs [2, 18] | ABUTH Obs [2, 19] | ABUTH Obs [2, 20] | ABUTH Obs [2, 21] | ABUTH Obs [2, 22] | ABUTH Obs [2, 23] | ABUTH Obs [2, 24] | ZEAMD Obs [3] [%] | POROL Obs ([4]; 15 DAA) | POROL Obs ([4]; 29 DAA) | POROL Obs ([4]; 48 DAA) | POROL Obs ([4]; 61 DAA) | also measured
1 | COC(=O)c1nc(C2CC2)nc(N)c1Cl [Compound 2, methyl 6-amino-5-chloro-2-cyclopropyl-4-pyrimidinecarboxylate] | 13 | 28 | 45 | 45 | 52 | 13 | 18 | 65 | 63 | 73 | 38 | 55 | 63 | 68 | 78 | 0 | 60 | 75 | 90 | 90 | ZEAMD Obs ([1]; hybrid Pioneer 31G96, corn (Zea mays ssp. indentata), in vivo, 55 days after application): 0; Obs growth % of control ([5]; 19 DAA, 75 g a.i./ha): 88%; Obs growth % of control ([5]; 19 DAA, 100 g a.i./ha): 77%; Obs growth % of control ([5]; 28 DAA, 75 g a.i./ha): 45%; Obs growth % of control ([5]; 28 DAA, 100 g a.i./ha): 58%; Obs growth % of control ([5]; 56 DAA, 75 g a.i./ha): 75%; Obs growth % of control ([5]; 56 DAA, 100 g a.i./ha): 80%; Postemergence SINAR Obs ([6]; Cpd 2 alone 16 g a.i./ha): 65; Postemergence GALAP Obs ([7]; Cpd 2 alone 4 g a.i./ha): 60; Postemergence GALAP Obs ([7]; Cpd 2 alone 8 g a.i./ha): 72; Postemergence GALAP Obs ([7]; Cpd 2 alone 16 g a.i./ha): 80; Postemergence PAPRH Obs ([8]; Cpd 2 alone 4 g a.i./ha): 53; Postemergence PAPRH Obs ([8]; Cpd 2 alone 8 g a.i./ha): 58; Postemergence PAPRH Obs ([8]; Cpd 2 alone 16 g a.i./ha): 72; Postemergence POLCO Obs ([9]; Cpd 2 alone 4 g a.i./ha): 48; Postemergence POLCO Obs ([9]; Cpd 2 alone 8 g a.i./ha): 53; Postemergence POLCO Obs ([9]; Cpd 2 alone 16 g a.i./ha): 55
2 | O=C(O)CNCP(=O)(O)O [Glyphosate] | – | – | – | – | – | – | – | – | – | – | – | – | – | – | – | 0 | – | – | – | – | –
3 | O=C(O)COc1ccc(Cl)cc1Cl [2,4-D, (2,4-dichlorophenoxy)acetic acid] | – | – | – | – | – | – | – | – | – | – | – | – | – | – | – | – | – | – | – | – | Postemergence SINAR Obs ([6]; 2,4-D alone 125 g a.i./ha): 85; Postemergence SINAR Obs ([6]; 2,4-D alone 250 g a.i./ha): 65; Postemergence GALAP Obs [7, 25]: 33; Postemergence PAPRH Obs [8, 25]: 52; Postemergence POLCO Obs [9, 25]: 58
4 | Nc1nc(C2CC2)nc(C(=O)O)c1Cl [Compound 1, 6-amino-5-chloro-2-cyclopropyl-4-pyrimidinecarboxylic acid] | – | – | – | – | – | – | – | – | – | – | – | – | – | – | – | – | 90 | 97 | 100 | 100 | –
5 | CCNc1nc(Cl)nc(NC(C)C)n1 [Atrazine, atrazine, reference compound] | 15 | 45 | 55 | 62 | 64 | 37 | 78 | 85 | 98 | 99 | 68 | 63 | 87 | 100 | 99 | – | – | – | – | – | ZEAMD Obs [1, 10]: 8; ZEAMD Obs [1, 11]: 5; ZEAMD Obs [1, 12]: 15; ZEAMD Obs [1, 13]: 7; ZEAMD Obs [1, 14]: 5; ZEAMD Obs [1, 15]: 2; ZEAMD Obs [1, 16]: 7; ZEAMD Obs [1, 17]: 12; ZEAMD Obs [1, 18]: 8; ZEAMD Obs [1, 19]: 3; ZEAMD Obs [1, 20]: 0; ZEAMD Obs [1, 21]: 0; ZEAMD Obs [1, 22]: 0; ZEAMD Obs [1, 23]: 0; ZEAMD Obs [1, 24]: 0
6 | CCc1cccc(C)c1N(C(=O)CCl)[C@@H](C)COC [S-Metolachlor, S-metolachlor, reference compound] | – | – | – | – | – | – | – | – | – | – | – | – | – | – | – | – | – | – | – | – | Obs growth % of control ([5]; 19 DAA, 1870 g a.i./ha): 100%; Obs growth % of control ([5]; 28 DAA, 1870 g a.i./ha): 53%

Source: patent US20100285959A1, “HERBICIDAL MIXTURES” (priority 2006, published 2010)
